Laboratory results taken from ChEMBL document CHEMBL1134167, “Conformational study of a highly specific CXCR4 inhibitor, T140, disclosing the close proximity of its intrinsic pharmacophores associated with strong anti-HIV activity” (Bioorg Med Chem Lett, 2001).
pEC50: −log10 of the molar value. Where a SMILES comes first, the peptide text is derived from it. Bridges are numbered along the chain shown (N, C = ends). [ ]: non-standard residue; d: D form. Gly(2-naphthyl) = N[C@H](C(=O)O)c1ccc2ccccc2c1; Cit = NC(=O)NCCC[C@H](N)C(=O)O

Tested on: Human immunodeficiency virus 1
Assay: Effective concentration for HIV-1 inhibition
Assay type: functional, organism-based

NCCCC[C@@H]1NC(=O)[C@H](CCCN=C(N)N)NC(=O)[C@H](Cc2ccc(O)cc2)NC(=O)[C@@H](NC(=O)[C@@H](NC(=O)[C@H](CCCN=C(N)N)NC(=O)[C@@H](N)CCCN=C(N)N)c2ccc3ccccc3c2)CSSC[C@@H](C(=O)N[C@@H](CCCN=C(N)N)C(=O)O)NC(=O)[C@H](CCCNC(N)=O)NC(=O)[C@H](CCCN=C(N)N)NC(=O)[C@H](Cc2ccc(O)cc2)NC(=O)[C@@H]2CCCN2C(=O)[C@@H](CCCCN)NC1=O (H-RR[Gly(2-naphthyl)]CYRK[dK]PYR[Cit]CR-OH; disulfide 4-13)
pEC50: 8.46
